Results from US10058577B2, “Thermo-stable strains, products and methods thereof” (TRIPHASE PHARMACEUTICALS PVT. LTD., priority 2014, dated 2018).

What was measured:
[1] = system: Lactobacillus acidophilus TSP-La1; assay: Antibiotic susceptibility by disk diffusion method; format: cell-based; conditions: for zone of inhibition at 10 µg/disc: TSPLA1, 10 μg; for zone of inhibition at 5 µg/disc: TSPLA1, 5 μg; for zone of inhibition at 30 µg/disc: TSPLA1, 30 μg
Method: (§1) In order to ascertain the sensitivity of the thermostable strains in the food products towards antibiotics, Antibiotic susceptibility profile for Lactobacillus acidophilus is created by disk diffusion method. The susceptibility criteria used is established by Charteris et al. The Lactobacillus acidophilus is grown in Man Rogosa Sharpe Agar (MRSA).
67.15 grams is suspended in 1000 ml distilled water and heated to boiling to dissolve the medium completely. It is sterilized by autoclaving at 15 lbs pressure (121° C.) for 20 minutes, mixed well and poured into sterile Petri plates.
The concentration of the tested antibiotics has been included depending upon their minimum inhibitory concentrations.

[2] = system: Lactobacillus plantarum TSP-Lp1; assay: Antibiotic susceptibility by disk diffusion method; format: cell-based; conditions: for zone of inhibition at 10 µg/disc: TSPLP1, 10 μg; for zone of inhibition at 5 µg/disc: TSPLP1, 5 μg; for zone of inhibition at 30 µg/disc: TSPLP1, 30 μg
Method: as §1
The same set of study as the previous example is conducted using Lactobacillus plantarum strain of the present disclosure and the results for the study are depicted in Table No. 13 as below. The susceptibility criteria used is established by Charteris et al. The Lactobacillus acidophilus is grown in Man Rogosa Sharpe Agar, […]

[3] = Lactobacillus acidophilus, read-out: MIC Results
[4] = Lactiplantibacillus plantarum, read-out: MIC Results

For `Cc1onc(-c2ccccc2)c1C(=O)N[C@@H]1C(=O)N2[C@@H]1SC(C)(C)[C@@H]2C(=O)O` [Oxacillin], the “MIC Results” value ([1]; 1 μg) was “No Zone”, the Resistant/Sensitive ([1]; 1 μg) was “Resistant” and the “MIC Results” value ([2]; 1 μg) was “No Zone”. For the same compound, the Resistant/Sensitive ([2]; 1 μg) was “Resistant”.
For `CN[C@H](CC(C)C)C(=O)N[C@H]1C(=O)N[C@@H](CC(N)=O)C(=O)N[C@H]2C(=O)N[C@H]3C(=O)N[C@H](C(=O)N[C@H](C(=O)O)c4cc(O)cc(O)c4-c4cc3ccc4O)[C@H](O)c3ccc(c(Cl)c3)Oc3cc2cc(c3O[C@@H]2O[C@H](CO)[C@@H](O)[C@H](O)[C@H]2O[C@H]2C[C@](C)(N)[C@H](O)[C@H](C)O2)Oc2ccc(cc2Cl)[C@H]1O` [Vancomycin], the “MIC Results” value ([1]; 30 μg) was “No Zone”, the Resistant/Sensitive ([1]; 30 μg) was “Resistant” and the “MIC Results” value ([2]; 30 μg) was “No Zone”. For the same compound, the Resistant/Sensitive ([2]; 30 μg) was “Resistant”.
In the case of `[H]/N=C(/N)N[C@H]1[C@H](O)[C@@H](O)[C@H](O[C@@H]2O[C@@H](C)[C@](O)(C=O)[C@H]2O[C@@H]2O[C@@H](CO)[C@H](O)[C@@H](O)[C@@H]2NC)[C@@H](N/C(N)=N\[H])[C@@H]1O` [Streptomycin], the Resistant/Sensitive ([1]; 10 μg) is reported as “Sensitive”, the zone of inhibition at 10 µg/disc [1, 3] is reported as 18 mm and the Resistant/Sensitive ([2]; 10 μg) is reported as “Sensitive”. For the same compound, the zone of inhibition at 10 µg/disc [2, 4] was 20 mm.
With `CC1(C)S[C@@H]2[C@H](NC(=O)[C@H](N)c3ccccc3)C(=O)N2[C@H]1C(=O)O` [Ampicillin] the Resistant/Sensitive ([1]; 10 μg) was “Resistant”, the zone of inhibition at 10 µg/disc [1, 3] was 10 mm and the “MIC Results” value ([2]; 10 μg) was “No Zone”. For the same compound, the Resistant/Sensitive ([2]; 10 μg) was “Resistant”.
In the case of `CO[C@H]1/C=C/O[C@@]2(C)Oc3c(C)c(O)c4c(O)c(c(/C=N/N5CCN(C)CC5)c(O)c4c3C2=O)NC(=O)/C(C)=C\C=C\[C@H](C)[C@H](O)[C@@H](C)[C@@H](O)[C@@H](C)[C@H](OC(C)=O)[C@@H]1C` [Rifampicin], the zone of inhibition at 5 µg/disc [1, 3] is reported as 35 mm and the zone of inhibition at 5 µg/disc [2, 4] is reported as 43 mm.
`CC(=O)OCC1=C(C(=O)O)N2C(=O)[C@@H](NC(=O)Cc3cccs3)[C@H]2SC1` [Cephalothin] was tested, and the Resistant/Sensitive ([1]; 30 μg) was “Sensitive”, the zone of inhibition at 30 µg/disc [1, 3] was 25 mm and the Resistant/Sensitive ([2]; 30 μg) was “Sensitive”. For the same compound, the zone of inhibition at 30 µg/disc [2, 4] was 23 mm.
`O=C(O)c1cn(C2CC2)c2cc(N3CCNCC3)c(F)cc2c1=O` [Ciprofloxacin] was tested, and the Resistant/Sensitive ([2]; 10 μg) was “Sensitive” and the zone of inhibition at 10 µg/disc [2, 4] was 31 mm.
With `CC1(C)S[C@@H]2[C@H](NC(=O)[C@H](N)c3ccc(O)cc3)C(=O)N2[C@H]1C(=O)O` [Amoxicillin] the Resistant/Sensitive ([1]; 30 μg) was “Sensitive”, the zone of inhibition at 30 µg/disc [1, 3] was 32 mm and the Resistant/Sensitive ([2]; 30 μg) was “Sensitive”. For the same compound, the zone of inhibition at 30 µg/disc [2, 4] was 39 mm.
`CN(C)[C@@H]1C(O)=C(C(N)=O)C(=O)[C@@]2(O)C(O)=C3C(=O)c4c(O)cccc4[C@@](C)(O)[C@H]3C[C@@H]12` [Tetracycline] gave a zone of inhibition at 30 µg/disc [1, 3] of 11 mm and a zone of inhibition at 30 µg/disc [2, 4] of 14 mm.
For `COc1cccc(OC)c1C(=O)N[C@@H]1C(=O)N2[C@@H]1SC(C)(C)[C@@H]2C(=O)O` [Methicillin], the Resistant/Sensitive ([1]; 5 μg) was “Sensitive”, the zone of inhibition at 5 µg/disc [1, 3] was 30 mm and the Resistant/Sensitive ([2]; 5 μg) was “Sensitive”. For the same compound, the zone of inhibition at 5 µg/disc [2, 4] was 15 mm.
`CCC[C@@H]1C[C@@H](C(=O)N[C@@H]([C@H]2O[C@H](SC)[C@H](O)[C@@H](O)[C@H]2O)[C@H](C)Cl)N(C)C1` [Clindamycin] was tested, and the zone of inhibition at 2 µg/disc ([1]; Lactobacillus acidophilus, TSPLA1, 2 μg, read-out: MIC Results) was 31 mm and the zone of inhibition at 2 µg/disc ([2]; Lactiplantibacillus plantarum, TSPLP1, 2 μg, read-out: MIC Results) was 34 mm.
`O=C(N[C@H](CO)[C@H](O)c1ccc([N+](=O)[O-])cc1)C(Cl)Cl` [Chloramphenicol] was tested, and the Resistant/Sensitive ([1]; 30 μg) was “Sensitive”, the zone of inhibition at 30 µg/disc [1, 3] was 29 mm and the Resistant/Sensitive ([2]; 30 μg) was “Sensitive”. For the same compound, the zone of inhibition at 30 µg/disc [2, 4] was 31 mm.
For Gentamycin, the “MIC Results” value ([1]; 10 μg) was 10 mm, the Resistant/Sensitive ([1]; 10 μg) was “Resistant” and the “MIC Results” value ([2]; 10 μg) was 8 mm. The Resistant/Sensitive ([2]; 10 μg) was “Resistant”.
With `CC[C@H]1OC(=O)[C@H](C)[C@@H](O[C@H]2C[C@@](C)(OC)[C@@H](O)[C@H](C)O2)[C@H](C)[C@@H](O[C@@H]2O[C@H](C)C[C@H](N(C)C)[C@H]2O)[C@](C)(O)C[C@@H](C)C(=O)[C@H](C)[C@@H](O)[C@]1(C)O` [Erythromycin] the Resistant/Sensitive ([1]; 15 μg) was “Resistant”, the zone of inhibition at 15 µg/disc ([1]; Lactobacillus acidophilus, TSPLA1, 15 μg, read-out: MIC Results) was 14 mm and the Resistant/Sensitive ([2]; 15 μg) was “Sensitive”. The zone of inhibition at 15 µg/disc ([2]; Lactiplantibacillus plantarum, TSPLP1, 15 μg, read-out: MIC Results) was 14 mm.
